Patent publication US11642339B2 (THERAVANCE BIOPHARMA R&D IP, LLC, priority 2017, dated 2023)
Where “and” joins values, the source holds several entries; their conditions need not be identical. Equal entries are not always repeated.

Columns and labels:
[1] = tested on: subjects with diabetic or idiopathic gastroparesis; assay: DIGEST I: GRS Summary Score 2 (Factor 2: nausea and vomiting); type: in vivo, human
Source text: A daily proprietary patient reported outcome (PRO) tool was used to assess GP symptoms, the Gastroparesis Rating Scale (GRS), developed according to the current FDA PRO guidance. The GRS covers the following cardinal symptom domains: (1) nausea, (2) vomiting, (3) postprandial fullness/early satiety, (4) bloating, (5) upper abdominal pain, (6) gastric reflux/burning, and (7) bowel movements. The GRS symptom domains may be also categorized or grouped into Factor 1 (fullness, early satiety, bloating, upper abdominal pain, and epigastric burning) and Factor 2 (nausea and vomiting).
GRS Factor 1 (also Summary Score 1) comprised fullness/early satiety, bloating, upper abdominal pain, and epigastric burning domains, whereas GRS Factor 2 (also Summary Score 2) comprised nausea and vomiting domains.
After the psychometric evaluation the GRS was summarized using two summary scores: Summary Score 1 combined the fullness/early satiety, bloating, upper abdominal pain, and epigastric burning domains and Summary Score 2 combined the nausea and vomiting domains.

[2] = tested on: subjects with diabetic or idiopathic gastroparesis; assay: DIGEST I Phase 2b: weekly GCSI-24H total score; details: 5 mg/day, Week 4;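 note: Patient-reported daily electronic-diary symptom index rating nausea/vomiting, postprandial fullness/early satiety and bloating, averaged weekly, once-daily oral capsule taken before breakfast, baseline from 1-week pretreatment period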
Source text: The total duration of study participation for each completed subject was approximately 19 weeks including: • Screening period: up to 5 weeks, including one week baseline period; • Treatment period: 12 weeks; and • Follow-up: 2 weeks.
To qualify for entry into the Baseline Period of the study, subjects had to have: a) a composite score of 2 and <5 points on nausea, bloating, feeling excessively full after meals, and not able to finish a normal-sized meal on the GCS1-2W; b) a score of ≥3 points for at least 2 of these 4 symptoms on the GCS1-2W at Screening; and c) delayed gastric emptying as determined by either a 4-hour ^99mTc GES or GEBT. If a subject failed either the GES or GEBT at Screening, then a second gastric emptying test could have been performed during the Screening Period using the GEBT in order to qualify for the study. Subjects who were eligible for further study participation completed the 2 daily PRO measures (the Gastroparesis Rating Scale [GRS] and a daily version of the GCSI, designated the Gastroparesis Cardinal Symptoms Index—24-Hour Recall [GCS1-24H] in this study) over a 7-day period to establish baselines.
After the 1-week Baseline Period, subjects were required to have a 7-day mean score of ≥2.5 and <5 points on the GCS.1-24H at Day 1 to be eligible for entry. Eligible subjects completed the Patient Assessment of Upper Gastrointestinal Quality of Life (PAG1-QOL) questionnaire to establish baseline QOL metrics at Day 1.
During the treatment period, subjects were instructed to take 1 capsule of study drug once daily approximately 30 minutes prior to eating at approximately the same time each morning and to record the time of drug ingestion in the electronic diary. Subjects also completed the GCS1-24H and GRS on a daily basis using an electronic diary. At specified times, subjects also completed the PAG1-QOL questionnaire to assess QOL metrics and the Treatment Satisfaction Questionnaire. In addition, subjects and clinicians completed the Overall Treatment Effect (OTE) and Overall Gastroparesis Severity (OGS) instruments to serve as anchor instruments for the psychometric evaluation of the GRS measure. Subjects returned to the study center for safety and efficacy assessments as detailed in the Schedule of Study Procedures.
A total score was used to assess the GCSI PRO, which comprised a mean of 3 means symptoms domain score.
Each individual domain was evaluated. […] LS Mean Differences in each subgroup are calculated based on repeated measures mixed effect model with change from baseline in weekly GCSI-24H total score as dependent variable, treatment, gastroparesis type (diabetic vs. idiopathic), GE test time (historical vs. prospective), baseline GCSI 24H total score, time, subgroup variable, interaction effect of treatment by time, baseline GCSI 24H total score by time, treatment by subgroup variable, time by subgroup variable and treatment by time by subgroup variable as fixed effect, a random effect of subject within site, using an unstructured covariance structure. For GCSI baseline subgroup analysis, baseline 24H total score is replaced with GCSI baseline categorical variable.

[3] = 5 mg/day, Week 4, diabetic gastroparesis population
[4] = 5 mg/day, Week 4, idiopathic gastroparesis population
[5] = 5 mg/day, Week 8, diabetic gastroparesis population
[6] = 5 mg/day, Week 8, idiopathic gastroparesis population
[7] = 5 mg/day, Week 12, diabetic gastroparesis population
[8] = 5 mg/day, Week 12, idiopathic gastroparesis population
[9] = 15 mg/day, Week 4, diabetic gastroparesis population
[10] = 15 mg/day, Week 4, idiopathic gastroparesis population
[11] = 15 mg/day, Week 8, diabetic gastroparesis population
[12] = 15 mg/day, Week 8, idiopathic gastroparesis population
[13] = 15 mg/day, Week 12, diabetic gastroparesis population
[14] = 15 mg/day, Week 12, idiopathic gastroparesis population
[15] = 30 mg/day, Week 4, diabetic gastroparesis population
[16] = 30 mg/day, Week 4, idiopathic gastroparesis population
[17] = 30 mg/day, Week 8, diabetic gastroparesis population
[18] = 30 mg/day, Week 8, idiopathic gastroparesis population
[19] = 30 mg/day, Week 12, diabetic gastroparesis population
[20] = 30 mg/day, Week 12, idiopathic gastroparesis population

1-isopropyl-2-oxo-1,2-dihydroquinoline-3-carboxylic acid {(1S,3R,5R)-8-[(R)-2-hydroxy-3-(methanesulfonyl-methyl-amino)propyl]-8-azabicyclo[3.2.1]oct-3-yl}amide [Velusetrag]
LS Mean Difference vs placebo, GRS Summary Score 2 (Factor 2) ([1]; 5 mg/day, Week 4, ITT): −0.1 points and −0.1 (0.12) points | LS Mean change from baseline, GRS Summary Score 2 (Factor 2) ([1]; 5 mg/day, Week 4, ITT): 0.8 (0.08) points | LS Mean Difference vs placebo, GRS Summary Score 2 (Factor 2) [1, 3]: −0.0 points | LS Mean change from baseline, GRS Summary Score 2 (Factor 2) [1, 3]: −0.8 points | LS Mean Difference vs placebo, GRS Summary Score 2 (Factor 2) [1, 4]: −0.3 (0.17) points | LS Mean change from baseline, GRS Summary Score 2 (Factor 2) [1, 4]: −0.9 (0.12) points | LS Mean Difference vs placebo, GRS Summary Score 2 (Factor 2) ([1]; 5 mg/day, Week 8, ITT): −0.1 (0.13) points | LS Mean change from baseline, GRS Summary Score 2 (Factor 2) ([1]; 5 mg/day, Week 8, ITT): −0.9 (0.09) points | LS Mean Difference vs placebo, GRS Summary Score 2 (Factor 2) [1, 5]: 0.0 points | LS Mean change from baseline, GRS Summary Score 2 (Factor 2) [1, 5]: −0.9 points | LS Mean Difference vs placebo, GRS Summary Score 2 (Factor 2) [1, 6]: −0.3 (0.18) points | LS Mean change from baseline, GRS Summary Score 2 (Factor 2) [1, 6]: −0.9 (0.13) points | LS Mean Difference vs placebo, GRS Summary Score 2 (Factor 2) ([1]; 5 mg/day, Week 12, ITT): −0.2 points and −0.2 (0.12) points | LS Mean change from baseline, GRS Summary Score 2 (Factor 2) ([1]; 5 mg/day, Week 12, ITT): −1.0 (0.08) points | LS Mean Difference vs placebo, GRS Summary Score 2 (Factor 2) [1, 7]: −0.1 points | LS Mean change from baseline, GRS Summary Score 2 (Factor 2) [1, 7]: −1.0 points | LS Mean Difference vs placebo, GRS Summary Score 2 (Factor 2) [1, 8]: −0.3 (0.17) points | LS Mean change from baseline, GRS Summary Score 2 (Factor 2) [1, 8]: −1.0 (0.12) points | LS Mean Difference vs placebo, GRS Summary Score 2 (Factor 2) ([1]; 15 mg/day, Week 4, ITT): −0.0 (0.12) points | LS Mean change from baseline, GRS Summary Score 2 (Factor 2) ([1]; 15 mg/day, Week 4, ITT): −0.7 (0.09) points | LS Mean Difference vs placebo, GRS Summary Score 2 (Factor 2) [1, 9]: 0.1 points | LS Mean change from baseline, GRS Summary Score 2 (Factor 2) [1, 9]: −0.7 points | LS Mean Difference vs placebo, GRS Summary Score 2 (Factor 2) [1, 10]: −0.2 (0.18) points | LS Mean change from baseline, GRS Summary Score 2 (Factor 2) [1, 10]: −0.8 (0.13) points | LS Mean Difference vs placebo, GRS Summary Score 2 (Factor 2) ([1]; 15 mg/day, Week 8, ITT): −0.0 (0.13) points | LS Mean change from baseline, GRS Summary Score 2 (Factor 2) ([1]; 15 mg/day, Week 8, ITT): −0.8 (0.10) points | LS Mean Difference vs placebo, GRS Summary Score 2 (Factor 2) [1, 11]: 0.3 points | LS Mean change from baseline, GRS Summary Score 2 (Factor 2) [1, 11]: −0.6 points | LS Mean Difference vs placebo, GRS Summary Score 2 (Factor 2) [1, 12]: −0.2 (0.19) points | LS Mean change from baseline, GRS Summary Score 2 (Factor 2) [1, 12]: −0.9 (0.14) points | LS Mean Difference vs placebo, GRS Summary Score 2 (Factor 2) ([1]; 15 mg/day, Week 12, ITT): −0.1 (0.12) points | LS Mean change from baseline, GRS Summary Score 2 (Factor 2) ([1]; 15 mg/day, Week 12, ITT): −0.9 (0.09) points | LS Mean Difference vs placebo, GRS Summary Score 2 (Factor 2) [1, 13]: 0.1 points | LS Mean change from baseline, GRS Summary Score 2 (Factor 2) [1, 13]: −0.8 points | LS Mean Difference vs placebo, GRS Summary Score 2 (Factor 2) [1, 14]: −0.3 (0.18) points | LS Mean change from baseline, GRS Summary Score 2 (Factor 2) [1, 14]: −1.0 (0.13) points | LS Mean Difference vs placebo, GRS Summary Score 2 (Factor 2) ([1]; 30 mg/day, Week 4, ITT): 0.1 (0.12) points | LS Mean change from baseline, GRS Summary Score 2 (Factor 2) ([1]; 30 mg/day, Week 4, ITT): −0.6 (0.09) points | LS Mean Difference vs placebo, GRS Summary Score 2 (Factor 2) [1, 15]: 0.1 points | LS Mean change from baseline, GRS Summary Score 2 (Factor 2) [1, 15]: −0.6 points | LS Mean Difference vs placebo, GRS Summary Score 2 (Factor 2) [1, 16]: −0.0 (0.17) points | LS Mean change from baseline, GRS Summary Score 2 (Factor 2) [1, 16]: −0.7 (0.12) points | LS Mean Difference vs placebo, GRS Summary Score 2 (Factor 2) ([1]; 30 mg/day, Week 8, ITT): −0.0 (0.13) points | LS Mean change from baseline, GRS Summary Score 2 (Factor 2) ([1]; 30 mg/day, Week 8, ITT): −0.8 (0.09) points | LS Mean Difference vs placebo, GRS Summary Score 2 (Factor 2) [1, 17]: 0.1 points | LS Mean change from baseline, GRS Summary Score 2 (Factor 2) [1, 17]: −0.8 points | LS Mean Difference vs placebo, GRS Summary Score 2 (Factor 2) [1, 18]: −0.1 (0.18) points | LS Mean change from baseline, GRS Summary Score 2 (Factor 2) [1, 18]: −0.8 (0.13) points | LS Mean Difference vs placebo, GRS Summary Score 2 (Factor 2) ([1]; 30 mg/day, Week 12, ITT): −0.2 (0.12) points | LS Mean change from baseline, GRS Summary Score 2 (Factor 2) ([1]; 30 mg/day, Week 12, ITT): −1.0 (0.08) points | LS Mean Difference vs placebo, GRS Summary Score 2 (Factor 2) [1, 19]: −0.2 points | LS Mean change from baseline, GRS Summary Score 2 (Factor 2) [1, 19]: −1.1 points | LS Mean Difference vs placebo, GRS Summary Score 2 (Factor 2) [1, 20]: −0.2 (0.17) points | LS Mean change from baseline, GRS Summary Score 2 (Factor 2) [1, 20]: −0.9 (0.12) points | LS Mean Difference vs placebo, weekly GCSI-24H total score ([2]; ITT): −0.4 points | LS Mean change from baseline, weekly GCSI-24H total score ([2]; ITT): −1.5 (0.13) points | LS Mean Difference vs placebo, weekly GCSI-24H total score ([2]; ITT, listed as VEL): −0.4 (0.18) points | LS Mean Difference vs placebo, weekly GCSI-24H total score ([2]; diabetic patients): −0.2 (0.25) points | LS Mean change from baseline, weekly GCSI-24H total score ([2]; diabetic patients): −1.5 (0.18) points | LS Mean Difference vs placebo, weekly GCSI-24H total score ([2]; idiopathic patients): −0.6 (0.26) points
